Experimental data: patent publication US20240300932A1, “N-PHENYLIMINE DERIVATIVE AND PREPARATION METHOD AND USE THEREOF” (Guizhou University, priority 2023, published 2024)

What was measured:
Trifoliumre pensL. = assay: Post-emergence herbicidal activity test (stem and leaf spray, pot culture); type: in vivo; conditions: 3 weeks after spraying
Procedure, shortened: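 Pot-grown weeds in loam (pH 7), greenhouse at 20–30 °C, sprayed once post-emergence at the 2–3-leaf stage. Compound in acetone with Tween 80 plus methyl oleate oil (1.5 L/ha), applied at 10, 5 and 2.5 g/mu by spray tower. Effect scored 3 weeks after spraying, averaged over three repeats.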

Portulaca oleracea = assay: Post-emergence herbicidal activity test (stem and leaf spray, pot culture); type: in vivo; conditions: 3 weeks after spraying
Procedure, shortened: (§1)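 Seeds soaked 6 h at 25 °C, germinated at 28 °C, sown in loam pots and thinned to 10 plants/pot. At 2–3 leaves, plants received a single spray-tower application of 10, 5 or 2.5 g/mu. Fresh-weight control was graded 0–5 after 3 weeks.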

Echinochloa crusgalli = assay: as above; type: in vivo; conditions: 3 weeks after spraying
Procedure, shortened: as §1

Setaria viridis = assay: as above; type: in vivo; conditions: 3 weeks after spraying
Procedure, shortened: as §1

Amaranthus retroflexus = assay: as above; type: in vivo; conditions: 3 weeks after spraying
Procedure, shortened: as §1

Abutilon theophrasti = assay: as above; type: in vivo; conditions: 3 weeks after spraying
Procedure, shortened: as §1

melting point [°C]	SMILES	Post-emergence herbicidal activity, Trifoliumre pensL. (grade) (Trifoliumre pensL.; dosage 2.5 g/mu)	Post-emergence herbicidal activity, Trifoliumre pensL. (grade) (Trifoliumre pensL.; dosage 5 g/mu)	Post-emergence herbicidal activity, Trifoliumre pensL. (grade) (Trifoliumre pensL.; dosage 10 g/mu)	Post-emergence herbicidal activity, P. oleracea (grade) (Portulaca oleracea; dosage 2.5 g/mu)	Post-emergence herbicidal activity, P. oleracea (grade) (Portulaca oleracea; dosage 5 g/mu)	Post-emergence herbicidal activity, P. oleracea (grade) (Portulaca oleracea; dosage 10 g/mu)	Post-emergence herbicidal activity, E. crusgalli (grade) (Echinochloa crusgalli; dosage 2.5 g/mu)	Post-emergence herbicidal activity, E. crusgalli (grade) (Echinochloa crusgalli; dosage 5 g/mu)	Post-emergence herbicidal activity, E. crusgalli (grade) (Echinochloa crusgalli; dosage 10 g/mu)	Post-emergence herbicidal activity, S. viridis (grade) (Setaria viridis; dosage 2.5 g/mu)	Post-emergence herbicidal activity, S. viridis (grade) (Setaria viridis; dosage 5 g/mu)	Post-emergence herbicidal activity, S. viridis (grade) (Setaria viridis; dosage 10 g/mu)	Post-emergence herbicidal activity, A. retroflexus (grade) (Amaranthus retroflexus; dosage 2.5 g/mu)	Post-emergence herbicidal activity, A. retroflexus (grade) (Amaranthus retroflexus; dosage 5 g/mu)	Post-emergence herbicidal activity, A. retroflexus (grade) (Amaranthus retroflexus; dosage 10 g/mu)	Post-emergence herbicidal activity, A. theophrasti (grade) (Abutilon theophrasti; dosage 2.5 g/mu)	Post-emergence herbicidal activity, A. theophrasti (grade) (Abutilon theophrasti; dosage 5 g/mu)	Post-emergence herbicidal activity, A. theophrasti (grade) (Abutilon theophrasti; dosage 10 g/mu)
101 to 105	Cc1ccc(Br)cc1-c1noc(COc2cc(N3C(=O)C4=C(CCCC4)C3=O)c(F)cc2Cl)n1 [Compound A1, 2-(5-((3-(5-bromo-2-tolyl)-1,2,4-oxadiazole-5-yl)methoxy)-4-chloro-2-fluorophenyl)-4,5,6,7-tetrahydro-1H-isoindole-1,3(2H)-dione]	4 (Grade 4: the growth control rate is greater than or equal to 60% and less than 85%)	5 (Grade 5: the growth control rate is greater than or equal to 85%)	5 (Grade 5: the growth control rate is greater than or equal to 85%)	4 (Grade 4: the growth control rate is greater than or equal to 60% and less than 85%)	5 (Grade 5: the growth control rate is greater than or equal to 85%)	5 (Grade 5: the growth control rate is greater than or equal to 85%)	1 (Grade 1: the growth control rate is greater than or equal to 5% and less than 20%)	2 (Grade 2: the growth control rate is greater than or equal to 20% and less than 40%)	3 (Grade 3: the growth control rate is greater than or equal to 40% and less than 60%)	2 (Grade 2: the growth control rate is greater than or equal to 20% and less than 40%)	3 (Grade 3: the growth control rate is greater than or equal to 40% and less than 60%)	4 (Grade 4: the growth control rate is greater than or equal to 60% and less than 85%)	5 (Grade 5: the growth control rate is greater than or equal to 85%)	5 (Grade 5: the growth control rate is greater than or equal to 85%)	5 (Grade 5: the growth control rate is greater than or equal to 85%)	5 (Grade 5: the growth control rate is greater than or equal to 85%)	5 (Grade 5: the growth control rate is greater than or equal to 85%)	5 (Grade 5: the growth control rate is greater than or equal to 85%)
161 to 167	Cc1ccccc1-c1noc(COc2cc(N3C(=O)C4=C(CCCC4)C3=O)c(F)cc2Cl)n1 [Compound A2, 2-(4-chloro-2-fluoro-5-((3-(2-tolyl)-1,2,4-oxadiazole-5-yl)methoxy)phenyl)-4,5,6,7-tetrahydro-1H-isoindole-1,3(2H)-dione]	4 (Grade 4: the growth control rate is greater than or equal to 60% and less than 85%)	5 (Grade 5: the growth control rate is greater than or equal to 85%)	5 (Grade 5: the growth control rate is greater than or equal to 85%)	4 (Grade 4: the growth control rate is greater than or equal to 60% and less than 85%)	5 (Grade 5: the growth control rate is greater than or equal to 85%)	5 (Grade 5: the growth control rate is greater than or equal to 85%)	1 (Grade 1: the growth control rate is greater than or equal to 5% and less than 20%)	2 (Grade 2: the growth control rate is greater than or equal to 20% and less than 40%)	3 (Grade 3: the growth control rate is greater than or equal to 40% and less than 60%)	2 (Grade 2: the growth control rate is greater than or equal to 20% and less than 40%)	3 (Grade 3: the growth control rate is greater than or equal to 40% and less than 60%)	4 (Grade 4: the growth control rate is greater than or equal to 60% and less than 85%)	5 (Grade 5: the growth control rate is greater than or equal to 85%)	5 (Grade 5: the growth control rate is greater than or equal to 85%)	5 (Grade 5: the growth control rate is greater than or equal to 85%)	5 (Grade 5: the growth control rate is greater than or equal to 85%)	5 (Grade 5: the growth control rate is greater than or equal to 85%)	5 (Grade 5: the growth control rate is greater than or equal to 85%)
158 to 162	O=C1C2=C(CCCC2)C(=O)N1c1cc(OCc2nnc(-c3cccc(Cl)c3)o2)c(Cl)cc1F [Compound B2, 2-(4-chloro-5-((5-(3-chlorophenyl)-1,3,4-oxadiazole-2-yl)methoxy)-2-fluorophenyl)-4,5,6,7-tetrahydro-1H-isoindole-1,3(2H)-dione]	5 (Grade 5: the growth control rate is greater than or equal to 85%)	5 (Grade 5: the growth control rate is greater than or equal to 85%)	5 (Grade 5: the growth control rate is greater than or equal to 85%)	5 (Grade 5: the growth control rate is greater than or equal to 85%)	5 (Grade 5: the growth control rate is greater than or equal to 85%)	5 (Grade 5: the growth control rate is greater than or equal to 85%)	1 (Grade 1: the growth control rate is greater than or equal to 5% and less than 20%)	2 (Grade 2: the growth control rate is greater than or equal to 20% and less than 40%)	3 (Grade 3: the growth control rate is greater than or equal to 40% and less than 60%)	2 (Grade 2: the growth control rate is greater than or equal to 20% and less than 40%)	3 (Grade 3: the growth control rate is greater than or equal to 40% and less than 60%)	4 (Grade 4: the growth control rate is greater than or equal to 60% and less than 85%)	5 (Grade 5: the growth control rate is greater than or equal to 85%)	5 (Grade 5: the growth control rate is greater than or equal to 85%)	5 (Grade 5: the growth control rate is greater than or equal to 85%)	5 (Grade 5: the growth control rate is greater than or equal to 85%)	5 (Grade 5: the growth control rate is greater than or equal to 85%)	5 (Grade 5: the growth control rate is greater than or equal to 85%)
144 to 147	Cc1ccccc1-c1nnc(COc2cc(N3C(=O)C4=C(CCCC4)C3=O)c(F)cc2Cl)o1 [Compound B9, 2-(4-chloro-2-fluoro-5-((5-(2-tolyl)-1,3,4-oxadiazole-2-yl)methoxy)phenyl)-4,5,6,7-tetrahydro-1H-isoindole-1,3(2H)-dione]	5 (Grade 5: the growth control rate is greater than or equal to 85%)	5 (Grade 5: the growth control rate is greater than or equal to 85%)	5 (Grade 5: the growth control rate is greater than or equal to 85%)	5 (Grade 5: the growth control rate is greater than or equal to 85%)	5 (Grade 5: the growth control rate is greater than or equal to 85%)	5 (Grade 5: the growth control rate is greater than or equal to 85%)	1 (Grade 1: the growth control rate is greater than or equal to 5% and less than 20%)	2 (Grade 2: the growth control rate is greater than or equal to 20% and less than 40%)	3 (Grade 3: the growth control rate is greater than or equal to 40% and less than 60%)	2 (Grade 2: the growth control rate is greater than or equal to 20% and less than 40%)	3 (Grade 3: the growth control rate is greater than or equal to 40% and less than 60%)	4 (Grade 4: the growth control rate is greater than or equal to 60% and less than 85%)	5 (Grade 5: the growth control rate is greater than or equal to 85%)	5 (Grade 5: the growth control rate is greater than or equal to 85%)	5 (Grade 5: the growth control rate is greater than or equal to 85%)	5 (Grade 5: the growth control rate is greater than or equal to 85%)	5 (Grade 5: the growth control rate is greater than or equal to 85%)	5 (Grade 5: the growth control rate is greater than or equal to 85%)
